This is an account of results in patent US7262170B2, “Pharmaceutical composition for reducing vaginal acidity and treatment of vaginitis, and the use thereof” (priority 1998, dated 2007).

The subject of one assay is Candida albicans. Description: Growth of Candida albicans in broths with or without Fluconazole, Gram-stained smears of cultured broths. The class given is cell-based. The settings on record: 48 hours incubation, Fluconazole 0.005% in experiment tubes. As for the experimental part: Broths: Four sterilized broths were prepared separately according to following formula: • A. Sucrose 0.25%, yeast extract powder 0.15%, glutamic acid 0.4%, aspartic acid 0.4%, isoleucine 0.4%, proline 0.4%, phenylalanine 0.4%, Fluconazole, 0.005%, distilled water, pH adjusted to 6.5 • B. Sucrose 0.25%, yeast extract powder 0.15%, glutamic acid 0.08%, aspartic acid 0.08%, isoleucine 0.08%, proline 0.08%, phenylalanine 0.08%, Fluconazole, 0.005%, distilled water, pH adjusted to 6.5 • C. Control-A broth: Sucrose 0.25%, yeast extract powder 0.15%, glutamic acid 0.4%, aspartic acid 0.4%, isoleucine 0.4%, proline 0.4%, phenylalanine 0.4%, distilled water, pH adjusted to 6.5 • D. Control-B broth: Sucrose 0.25%, yeast extract powder 0.15%, glutamic acid 0.08%, aspartic acid 0.08%, isoleucine 0.08%, proline 0.08%, phenylalanine 0.08%, distilled water, pH adjusted to 6.5 Lactobacillus suspensions: Two lactobacillus suspensions were prepared separately from each of the clinical isolated L. acidophilus and L. crispatus strains. Candida suspension: One Candida suspension was prepared from a clinically isolated Candida albicans strain. Grouping: two groups of tubes were divided and each group had four tubes, two experimental tubes and two control tubes. Group A contained 3 ml of A-broth and Group B contained 3 ml of B-broth. […]

The next assay concerns fungal vaginitis. The settings on record: anti-fungal drug alone; cited from earlier work.

`OC(Cn1cncn1)(Cn1cncn1)c1ccc(F)cc1F` [Fluconazole]: in the assay on Candida albicans, the “growth of Candida albicans / yeast-like organisms in cultured broths” value is on record as “inhibited”.
Consider Mikostatin, for which the curative rate in the assay on fungal vaginitis is 75-80%.
